Assay results taken from patent US20230274799A1, “SYSTEMS AND METHODS FOR PATIENT STRATIFICATION AND IDENTIFICATION OF POTENTIAL BIOMARKERS” (Berg LLC, priority 2016, published 2023).
“And” between values parts separate entries of the source, which are not always exact repeats. Equal values may be shown once.

Experiments:
Type in all cases: in vivo, human
[1] = Phase I dose-escalation trial, dose limiting toxicities of Coenzyme Q10 monotherapy (Arm 1)
Excerpt: (§1) The clinical trial is a multicenter, open-label, non-randomized, dose-escalation study to examine the dose limiting toxicities (DLT) of Coenzyme Q10 administered as a 144-hour continuous intravenous (IV) infusion as monotherapy (treatment Arm 1) and in combination with chemotherapy (treatment Arm 2) in patients with solid tumors. A broad range of solid tumors has been evaluated, including prostate, colon, breast, lung and pancreatic tumors, as shown in Tables 1 and 2 below. Coenzyme Q10 was administered in three consecutive 48 hour doses or two consecutive 72 hour doses, depending on the dose level. Three standard weekly chemotherapy regimens of gemcitabine, 5-fluorouracil, or docetaxel were evaluated in combination with Coenzyme Q10. Eligible patients are 18 years of age or older, afflicted with solid tumors, and relapsed/refractory to standard therapy. 85 patients have been enrolled in the trial. The monotherapy arm received Coenzyme Q10 for 6 days in continuous infusion in 28 day cycles, and the combination arms (gemcitabine, 5-fluorouracil, or docetaxel) were primed for 3 weeks with Coenzyme Q10 before initiation of standard chemotherapy, followed by weekly dosing in a 6 week cycle.
The study is a standard 3+3 dose escalation design with the dose escalated in successive cohorts of 3 to 6 patients each. Toxicity at each dose level is graded according to National Cancer Institute Common Terminology Criteria for Adverse Events (CTCAE v4.02). Safety oversight is provided by the Cohort Review Committee (CRC). If none of the 3 patients in a cohort experiences a DLT during Cycle 1, then 3 new patients may be entered at the next higher dose level following CRC review of safety and PK data from lower cohorts. The clinical trial is described in greater detail in WO2015/035094, which is incorporated by reference herein in its entirety.
DLTs were reported at 171 mg/kg in the Coenzyme Q10 monotherapy arm and at 137 mg/kg in the gemcitabine arm (maximum administered dose) and were coagulopathy-related. 3 DLTs were reported during the time period covered by Example 1. […] The event resolved in 2 days after administration of Vitamin K and fresh frozen plasma (FFP). Three additional patients were enrolled at this dose level with no additional DLTs reported. […] According to trial design, patients were being enrolled into the next lowest dose level (110 mg/kg).
Table 4. Dose limiting toxicities for Coenzyme Q10 monotherapy. The number of patients enrolled at each dose level (DL) is shown in parentheses. DL4 and DL5 were administered in two consecutive 72 hour IV infusions. All other dose levels were administered by three consecutive 48 hour IV infusions.

[2] = Phase I dose-escalation trial, dose limiting toxicities of Coenzyme Q10 in combination with chemotherapy (Arm 2)
Excerpt: as §1
The study is a standard 3+3 dose escalation design with the dose escalated in successive cohorts of 3 to 6 patients each. […]

[3] = Pharmacokinetics of Coenzyme Q10 in plasma during and after 144-hour continuous IV infusion; parameters: Coenzyme Q10 concentration in plasma, Mean ± SD: unit not given here
Experimental: Pharmacokinetics of Coenzyme Q10 was measured in the patients at time zero and at several time points during and after the 144-hour continuous intravenous (IV) infusion with Coenzyme Q10.

Structure (SMILES): COC1=C(OC)C(=O)C(C/C=C(\C)CC/C=C(\C)CC/C=C(\C)CC/C=C(\C)CC/C=C(\C)CC/C=C(\C)CC/C=C(\C)CC/C=C(\C)CC/C=C(\C)CCC=C(C)C)=C(C)C1=O [Coenzyme Q10]
- Time to resolution of DLT event (grade 3 PTT abnormality) ([1]; Mono Dose Level 5 (171 mg/kg), after administration of Vitamin K and fresh frozen plasma): 2 days
- Dose Limiting Toxicity ([1]; monotherapy DL1 - 66 mg/kg (9 enrolled), three consecutive 48 hour IV infusions, cell wraps r7-r9: Grade 3 Elevated Liver Function Test*, *readjudicated to unlikely related to protocol therapy): Grade 3 Elevated
- Dose Limiting Toxicity ([1]; monotherapy DL2 - 88 mg/kg (4 enrolled), three consecutive 48 hour IV infusions): None
- Dose Limiting Toxicity ([1]; monotherapy DL3 - 110 mg/kg (5 enrolled), three consecutive 48 hour IV infusions): None
- Dose Limiting Toxicity ([1]; monotherapy DL4 - 137 mg/kg (4 enrolled), two consecutive 72 hour IV infusions): None
- Dose Limiting Toxicity ([1]; monotherapy DL5 - 171 mg/kg (8 enrolled), two consecutive 72 hour IV infusions, cell wraps r20-r21: 1 DLT: Grade 3 PTT elevation): grade 3 partial thromboplastin time (PTT) abnormality and 1 DLT: Grade 3
- Number of DLTs reported ([1]; whole trial (mono and combination arms), time period covered by Example 1): 3
- Dose Limiting Toxicity ([2]; DL4 - 110 mg/kg with Gemcitabine 1,000 mg/m^2 (6 enrolled), two consecutive 72 hour infusions, cell wraps r34-r38: None to Date- need 3 more evaluable patients to determine MTD): None to Date-
- Dose Limiting Toxicity ([2]; in vivo): None
- Coenzyme Q10 concentration in plasma, Mean ± SD ([3]; 220 mg/kg/week, Arm 2, n = 9 (footnote c), time 96 hr): 348 ± 225^c
- Coenzyme Q10 concentration in plasma, Mean ± SD ([3]; 220 mg/kg/week, Arm 2, n = 9 (footnote c), time 148 hr): 250 ± 251^c
- Coenzyme Q10 concentration in plasma, Mean ± SD ([3]; 220 mg/kg/week, Arm 2, n = 11 (footnote b), time 4 hr): 158 ± 57^b
- Coenzyme Q10 concentration in plasma, Mean ± SD ([3]; 220 mg/kg/week, Arm 2, n = 11 (footnote b), time 140 hr): 378 ± 244^b
- Coenzyme Q10 concentration in plasma, Mean ± SD ([3]; 220 mg/kg/week, Arm 2, n = 11 (footnote b), time 146 hr): 282 ± 207^b
- Coenzyme Q10 concentration in plasma, Mean ± SD ([3]; 220 mg/kg/week, Arm 2, n = 12 (footnote a), time 1 hr): 150 ± 54^a
- Coenzyme Q10 concentration in plasma, Mean ± SD ([3]; 220 mg/kg/week, Arm 2, n = 12 (footnote a), time 73 hr): 227 ± 212^a
- Coenzyme Q10 concentration in plasma, Mean ± SD ([3]; 220 mg/kg/week, Arm 2, n = 12 (footnote a), time 74 hr): 226 ± 193^a
- Coenzyme Q10 concentration in plasma, Mean ± SD ([3]; 220 mg/kg/week, Arm 2, n = 12 (footnote a), time 143.5 hr): 363 ± 221^a
- Coenzyme Q10 concentration in plasma, Mean ± SD ([3]; 220 mg/kg/week, Arm 2, n = 13, time 0 hr): 0
- Coenzyme Q10 concentration in plasma, Mean ± SD ([3]; 220 mg/kg/week, Arm 2, n = 13, time 2 hr): 163 ± 66^
- Coenzyme Q10 concentration in plasma, Mean ± SD ([3]; 220 mg/kg/week, Arm 2, n = 13, time 24 hr): 251 ± 155
- Coenzyme Q10 concentration in plasma, Mean ± SD ([3]; 220 mg/kg/week, Arm 2, n = 13, time 71.5 hr): 255 ± 199
- Coenzyme Q10 concentration in plasma, Mean ± SD ([3]; 220 mg/kg/week, Arm 2, n = 13, time 142 hr): 358 ± 214
- Coenzyme Q10 concentration in plasma, Mean ± SD ([3]; 274 mg/kg/week, Arm 1, n = 3 (so in the source), time 0 hr): 0
- Coenzyme Q10 concentration in plasma, Mean ± SD ([3]; 274 mg/kg/week, Arm 1, n = 3 (so in the source), time 1 hr): 173 ± 36
- Coenzyme Q10 concentration in plasma, Mean ± SD ([3]; 274 mg/kg/week, Arm 1, n = 3 (so in the source), time 2 hr): 175 ± 42
- Coenzyme Q10 concentration in plasma, Mean ± SD ([3]; 274 mg/kg/week, Arm 1, n = 3 (so in the source), time 4 hr): 185 ± 51
- Coenzyme Q10 concentration in plasma, Mean ± SD ([3]; 274 mg/kg/week, Arm 1, n = 3 (so in the source), time 24 hr): 261 ± 149
- Coenzyme Q10 concentration in plasma, Mean ± SD ([3]; 274 mg/kg/week, Arm 1, n = 3 (so in the source), time 71.5 hr): 390 ± 260
- Coenzyme Q10 concentration in plasma, Mean ± SD ([3]; 274 mg/kg/week, Arm 1, n = 3 (so in the source), time 73 hr): 329 ± 260
- Coenzyme Q10 concentration in plasma, Mean ± SD ([3]; 274 mg/kg/week, Arm 1, n = 3 (so in the source), time 74 hr): 335 ± 242
- Coenzyme Q10 concentration in plasma, Mean ± SD ([3]; 274 mg/kg/week, Arm 1, n = 3 (so in the source), time 96 hr): 416 ± 291
- Coenzyme Q10 concentration in plasma, Mean ± SD ([3]; 274 mg/kg/week, Arm 1, n = 3 (so in the source), time 140 hr): 513 ± 213
- Coenzyme Q10 concentration in plasma, Mean ± SD ([3]; 274 mg/kg/week, Arm 1, n = 3 (so in the source), time 142 hr): 514 ± 260
